Data published in PubChem BioAssay (NCI).
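Dose response: 5 concentrations. Exposure: 48 h. Format: 96-well plates. Endpoint: linear interpolation; highest concentration if not reached. GI50 marks 50% less growth. Definition used: TGI = concentration required for complete inhibition of growth.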

Experiments:
Assay in all cases: NCI-60 cell line screen, 48 h
DLD-1 colon = system: DLD-1 colon
DMS 114 small cell lung = system: DMS 114 small cell lung
DMS 273 small cell lung = system: DMS 273 small cell lung
HOP-18 NSCLC = system: HOP-18 NSCLC
SNB-78 CNS = system: SNB-78 CNS
XF 498 CNS = system: XF 498 CNS
MCF7 breast = system: MCF7 breast
RXF-631 renal = system: RXF-631 renal
MDA-N = system: MDA-N

| Structure (SMILES) | TGI (DLD-1 colon) | TGI (DMS 114 small cell lung) | TGI (DMS 273 small cell lung) | TGI (HOP-18 NSCLC) | TGI (SNB-78 CNS) | TGI (XF 498 CNS) | GI50 (MCF7 breast) | TGI (MCF7 breast) | TGI (RXF-631 renal) | TGI (MDA-N) |
| --- | --- | --- | --- | --- | --- | --- | --- | --- | --- | --- |
| c1ccc2c(c1)[Se]c1ccccc1[Se]2 | > 100 µM | > 100 µM | > 100 µM | 98.6 µM | > 100 µM | > 100 µM |  |  |  |  |
| Cc1ccc2nc(NC(=O)CSC(=S)N3CCN(Cc4ccccc4)CC3)sc2c1 |  |  |  |  |  |  | 64.5 µM | > 100 µM |  |  |
| O=C(/C=C/c1ccccc1)c1ccc(O)c(CN2CCN(c3cc4c(cc3F)c(=O)c(C(=O)O)cn4C3CC3)CC2)c1 |  |  |  |  |  |  | 0.688 µM | > 100 µM |  |  |
| NC(CCc1nc(-c2ccccc2)cs1)C(=O)O (stereo unspecified) | > 100 µM | > 100 µM | > 100 µM | > 100 µM | > 100 µM |  |  |  |  |  |
| O=S(O)CCCCSSCCCCS(=O)(O)=S | > 100 µM | > 100 µM | > 100 µM | > 100 µM | > 100 µM | 33.2 µM |  |  | > 100 µM |  |
| COc1cccc(NC(=O)c2ccc(C(F)(F)F)nc2Nc2ccc(Cl)cc2C)c1 |  |  |  |  |  |  | 7.96 µM | 47.7 µM |  |  |
| COC(=O)c1c(C(=O)OC)c(C(=O)OC)c(C(=O)OC)c1C(=O)OC | > 100 µM | > 100 µM | > 100 µM | > 100 µM |  |  |  |  | > 100 µM |  |
| Cc1cc(Cl)ccc1N1C(=O)C(=O)C(c2nc3ccccc3s2)/C(=N\NC(=O)c2ccccc2O)C1=O (stereo unspecified) | > 100 µM | > 100 µM | > 100 µM | > 100 µM | > 100 µM |  |  |  | > 100 µM |  |
| CC(=O)C1C(=O)C(=O)N(c2ccc(Cl)cc2C)C1=O (stereo unspecified) | > 100 µM | > 100 µM |  | > 100 µM | > 100 µM |  |  |  | > 100 µM |  |
| Cc1cc(Cl)ccc1OCC(=O)Oc1c(Cl)c(Cl)c(Cl)c(Cl)c1Cl |  |  |  |  |  |  |  | 96.7 µM |  | 74.5 µM |
| COc1cc([N+](=O)[O-])c(S(=O)(=O)O)cc1-n1nc(-c2ccccc2)n[n+]1-c1cc(S(=O)(=O)[O-])c([N+](=O)[O-])cc1OC |  |  |  |  |  |  |  | > 100 µM |  | > 100 µM |
| CC(C)[C@H](COC(C)(C)C)N=CN1CSc2ccccc21 | > 100 µM | 62.1 µM | 37.8 µM |  | 81.5 µM | 47.8 µM |  |  | > 100 µM |  |
| COc1ccc(S(=O)(=O)N2CCCCC2)cc1NC(=O)c1[nH]c(C)c2c1CCCCC2=O |  |  |  |  |  |  | 0.666 µM | > 100 µM |  |  |
| CNC1=C(Br)C(=O)C2=C(C1=O)C1C3=C(C(=O)C=CC3=O)C2c2ccccc21 (stereo unspecified) |  |  |  |  |  |  | 2.25 µM | 5.62 µM |  |  |
| NC(N)=NS(=O)(=O)c1ccc(NC(=O)c2ccc(Cl)c3c(Nc4ccc(S(=O)(=O)N=C(N)N)cc4)c4ccccc4nc23)cc1 | > 100 µM | > 100 µM | > 100 µM | > 100 µM | > 100 µM |  |  |  | > 100 µM |  |
| CC(=O)OC1CC(C)c2c1ncnc2N1CCN(C(=O)OC(C)(C)C)CC1 (stereo unspecified) |  |  |  |  |  |  | 39.1 µM | > 100 µM |  |  |
| C=C(C)[C@@H]1CC[C@]2(C)[C@H](CC=C3[C@@H]4CC(C)(C)CC[C@]4(C(=O)OC)CC[C@]32C)[C@@]1(C)CC/C(N)=N/O |  |  |  |  |  |  | 2.13 µM | 5.3 µM |  |  |
| COc1cccc2c1C(=O)c1c(O)c3c(c(O)c1C2=O)C[C@@](O)(C(=O)COC(=O)c1cccnc1)C[C@@H]3OC1CC(N)C(O)C(C)O1 (stereo partly specified) |  |  |  |  |  |  | 0.033 µM | 2.08 µM |  |  |
